{
  "source": "the kinase profiling compilation of Christmann-Franck et al. (2016)",
  "assay_in_all_cases": "radiometric filter-binding kinase assay, Kinase HotSpot",
  "conditions_in_all_cases": "compound 0.5 µM; ATP 10 µM",
  "key": {"[1]": {"target": "HIPK1 (human) (UniProt Q86Z02)"}, "[2]": {"target": "MAP4K2 (human) (UniProt Q12851)"}, "[3]": {"target": "CDK9 CCNK (human) (UniProt O75909+P50750)", "sequence (O75909 whole entry, looked up)": "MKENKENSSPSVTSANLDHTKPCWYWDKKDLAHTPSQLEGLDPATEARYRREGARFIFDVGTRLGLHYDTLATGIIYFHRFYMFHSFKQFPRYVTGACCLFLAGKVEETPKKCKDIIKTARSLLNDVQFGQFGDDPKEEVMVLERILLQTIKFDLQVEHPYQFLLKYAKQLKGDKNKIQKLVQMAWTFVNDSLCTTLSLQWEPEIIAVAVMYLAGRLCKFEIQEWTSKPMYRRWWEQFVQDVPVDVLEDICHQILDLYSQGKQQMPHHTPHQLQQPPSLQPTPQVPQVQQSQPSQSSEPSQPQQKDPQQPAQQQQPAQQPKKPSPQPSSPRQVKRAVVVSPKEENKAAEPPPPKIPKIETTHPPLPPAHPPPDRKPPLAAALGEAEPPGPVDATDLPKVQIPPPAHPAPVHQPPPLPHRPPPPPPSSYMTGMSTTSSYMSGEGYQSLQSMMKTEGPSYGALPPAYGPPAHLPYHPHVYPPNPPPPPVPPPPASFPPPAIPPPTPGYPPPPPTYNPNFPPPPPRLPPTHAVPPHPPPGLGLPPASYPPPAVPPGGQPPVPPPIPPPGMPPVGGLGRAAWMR", "sequence (P50750 whole entry, looked up)": "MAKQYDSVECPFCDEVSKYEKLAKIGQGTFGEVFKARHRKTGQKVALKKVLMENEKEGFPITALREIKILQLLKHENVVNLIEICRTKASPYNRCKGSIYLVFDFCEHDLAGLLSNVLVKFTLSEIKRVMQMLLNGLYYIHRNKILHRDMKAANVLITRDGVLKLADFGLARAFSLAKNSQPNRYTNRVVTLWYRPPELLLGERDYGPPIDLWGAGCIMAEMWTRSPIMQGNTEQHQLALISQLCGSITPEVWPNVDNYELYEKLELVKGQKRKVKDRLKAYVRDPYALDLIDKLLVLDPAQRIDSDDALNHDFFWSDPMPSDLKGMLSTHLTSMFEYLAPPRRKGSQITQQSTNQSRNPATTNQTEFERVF"}, "[4]": {"target": "DCLK2 (human) (UniProt Q8N568)"}, "[5]": {"target": "EGFR (human) (UniProt P00533)", "sequence (P00533 whole entry, looked up)": "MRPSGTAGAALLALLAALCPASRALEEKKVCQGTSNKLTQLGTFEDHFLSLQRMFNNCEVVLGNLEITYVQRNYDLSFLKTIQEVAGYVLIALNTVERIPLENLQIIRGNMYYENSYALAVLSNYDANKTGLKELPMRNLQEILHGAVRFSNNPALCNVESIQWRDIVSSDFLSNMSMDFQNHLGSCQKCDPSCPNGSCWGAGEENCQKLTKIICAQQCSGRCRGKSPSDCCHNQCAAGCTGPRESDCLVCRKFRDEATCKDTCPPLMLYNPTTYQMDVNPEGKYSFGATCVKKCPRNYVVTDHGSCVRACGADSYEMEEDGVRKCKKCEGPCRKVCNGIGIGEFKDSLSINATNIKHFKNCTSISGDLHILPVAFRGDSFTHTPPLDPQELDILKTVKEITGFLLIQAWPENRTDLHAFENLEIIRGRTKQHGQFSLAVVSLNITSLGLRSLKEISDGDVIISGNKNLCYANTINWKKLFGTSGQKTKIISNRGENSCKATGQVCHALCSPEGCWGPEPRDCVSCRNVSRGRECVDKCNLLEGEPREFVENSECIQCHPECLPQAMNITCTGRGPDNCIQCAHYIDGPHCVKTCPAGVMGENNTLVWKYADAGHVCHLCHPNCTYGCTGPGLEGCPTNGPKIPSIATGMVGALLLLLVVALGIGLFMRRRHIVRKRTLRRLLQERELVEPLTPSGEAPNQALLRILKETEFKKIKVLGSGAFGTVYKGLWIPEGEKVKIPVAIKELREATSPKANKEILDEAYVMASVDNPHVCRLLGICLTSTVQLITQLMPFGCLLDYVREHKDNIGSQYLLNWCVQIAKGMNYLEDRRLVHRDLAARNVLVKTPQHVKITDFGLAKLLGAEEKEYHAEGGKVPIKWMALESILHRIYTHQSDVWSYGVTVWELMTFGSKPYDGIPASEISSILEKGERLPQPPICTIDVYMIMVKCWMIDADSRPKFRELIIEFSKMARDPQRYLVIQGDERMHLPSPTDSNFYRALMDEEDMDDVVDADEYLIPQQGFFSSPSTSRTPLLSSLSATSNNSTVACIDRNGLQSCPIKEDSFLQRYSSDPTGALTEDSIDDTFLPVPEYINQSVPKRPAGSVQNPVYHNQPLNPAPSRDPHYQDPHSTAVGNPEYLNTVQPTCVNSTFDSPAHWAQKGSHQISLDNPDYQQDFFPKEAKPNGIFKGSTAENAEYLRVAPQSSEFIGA"}, "[6]": {"target": "IRAK1 (human) (UniProt P51617)"}, "[7]": {"target": "WNK2 (human) (UniProt Q9Y3S1)"}, "[8]": {"target": "CSNK2A1 (human) (UniProt P68400)", "sequence (P68400 whole entry, looked up)": "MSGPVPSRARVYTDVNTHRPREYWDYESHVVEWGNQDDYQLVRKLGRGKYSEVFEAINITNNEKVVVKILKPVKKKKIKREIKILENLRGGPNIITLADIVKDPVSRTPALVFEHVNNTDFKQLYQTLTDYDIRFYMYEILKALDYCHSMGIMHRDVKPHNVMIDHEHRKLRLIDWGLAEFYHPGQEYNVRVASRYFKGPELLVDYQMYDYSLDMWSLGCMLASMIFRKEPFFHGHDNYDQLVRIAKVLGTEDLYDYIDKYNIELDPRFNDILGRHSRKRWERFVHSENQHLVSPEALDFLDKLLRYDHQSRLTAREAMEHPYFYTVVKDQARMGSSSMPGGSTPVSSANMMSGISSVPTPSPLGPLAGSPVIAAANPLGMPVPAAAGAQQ"}, "[9]": {"target": "RET (human) (UniProt P07949)"}, "[10]": {"target": "PNCK (human) (UniProt Q6P2M8)", "sequence (Q6P2M8 whole entry, looked up)": "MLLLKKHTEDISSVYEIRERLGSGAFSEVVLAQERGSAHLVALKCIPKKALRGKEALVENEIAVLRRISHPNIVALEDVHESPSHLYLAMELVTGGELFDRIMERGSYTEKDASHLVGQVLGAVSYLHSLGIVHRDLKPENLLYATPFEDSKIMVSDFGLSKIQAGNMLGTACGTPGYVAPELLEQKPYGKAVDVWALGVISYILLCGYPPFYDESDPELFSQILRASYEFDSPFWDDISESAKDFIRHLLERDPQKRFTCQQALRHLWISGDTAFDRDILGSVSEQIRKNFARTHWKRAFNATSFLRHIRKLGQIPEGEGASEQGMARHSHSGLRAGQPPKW"}, "[11]": {"target": "ACVRL1 (human) (UniProt P37023)", "sequence (P37023 whole entry, looked up)": "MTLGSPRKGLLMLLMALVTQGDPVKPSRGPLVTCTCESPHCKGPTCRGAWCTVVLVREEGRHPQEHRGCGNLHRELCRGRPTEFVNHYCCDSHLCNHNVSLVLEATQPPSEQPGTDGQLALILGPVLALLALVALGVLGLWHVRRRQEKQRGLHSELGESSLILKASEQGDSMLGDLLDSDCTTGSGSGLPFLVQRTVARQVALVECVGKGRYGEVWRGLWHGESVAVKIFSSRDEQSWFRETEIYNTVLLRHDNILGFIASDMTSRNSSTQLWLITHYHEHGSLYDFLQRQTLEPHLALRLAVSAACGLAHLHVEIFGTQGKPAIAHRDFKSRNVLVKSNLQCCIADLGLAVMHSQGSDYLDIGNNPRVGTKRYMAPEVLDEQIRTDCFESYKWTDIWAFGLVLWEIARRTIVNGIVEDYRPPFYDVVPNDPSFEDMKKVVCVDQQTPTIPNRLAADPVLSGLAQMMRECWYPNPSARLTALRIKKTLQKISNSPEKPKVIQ"}, "[12]": {"target": "SLK (human) (UniProt Q9H2G2)"}, "[13]": {"target": "PDGFRA (human) (UniProt P16234)"}, "[14]": {"target": "MST4 (human) (UniProt Q9P289)"}, "[15]": {"target": "SYK (human) (UniProt P43405)"}, "[16]": {"target": "GRK6 (human) (UniProt P43250)"}, "[17]": {"target": "EPHA1 (human) (UniProt P21709)"}, "[18]": {"target": "SRPK3 (human) (UniProt Q9UPE1)"}, "[19]": {"target": "AURKC (human) (UniProt Q9UQB9)"}, "[20]": {"target": "JAK2 JH1 JH2 (human) (UniProt O60674)"}, "[21]": {"target": "CDK6 CCND3 (human) (UniProt P30281+Q00534)"}, "[22]": {"target": "PDPK1 (human) (UniProt O15530)"}, "[23]": {"target": "SRMS (human) (UniProt Q9H3Y6)"}, "[24]": {"target": "JAK1 JH1 catalytic (human) (UniProt P23458)"}, "[25]": {"target": "CDC42BPA (human) (UniProt Q5VT25)"}, "[26]": {"target": "CSK (human) (UniProt P41240)"}, "[27]": {"target": "PRKX (human) (UniProt P51817)"}, "[28]": {"target": "LTK (human) (UniProt P29376)", "sequence (P29376 whole entry, looked up)": "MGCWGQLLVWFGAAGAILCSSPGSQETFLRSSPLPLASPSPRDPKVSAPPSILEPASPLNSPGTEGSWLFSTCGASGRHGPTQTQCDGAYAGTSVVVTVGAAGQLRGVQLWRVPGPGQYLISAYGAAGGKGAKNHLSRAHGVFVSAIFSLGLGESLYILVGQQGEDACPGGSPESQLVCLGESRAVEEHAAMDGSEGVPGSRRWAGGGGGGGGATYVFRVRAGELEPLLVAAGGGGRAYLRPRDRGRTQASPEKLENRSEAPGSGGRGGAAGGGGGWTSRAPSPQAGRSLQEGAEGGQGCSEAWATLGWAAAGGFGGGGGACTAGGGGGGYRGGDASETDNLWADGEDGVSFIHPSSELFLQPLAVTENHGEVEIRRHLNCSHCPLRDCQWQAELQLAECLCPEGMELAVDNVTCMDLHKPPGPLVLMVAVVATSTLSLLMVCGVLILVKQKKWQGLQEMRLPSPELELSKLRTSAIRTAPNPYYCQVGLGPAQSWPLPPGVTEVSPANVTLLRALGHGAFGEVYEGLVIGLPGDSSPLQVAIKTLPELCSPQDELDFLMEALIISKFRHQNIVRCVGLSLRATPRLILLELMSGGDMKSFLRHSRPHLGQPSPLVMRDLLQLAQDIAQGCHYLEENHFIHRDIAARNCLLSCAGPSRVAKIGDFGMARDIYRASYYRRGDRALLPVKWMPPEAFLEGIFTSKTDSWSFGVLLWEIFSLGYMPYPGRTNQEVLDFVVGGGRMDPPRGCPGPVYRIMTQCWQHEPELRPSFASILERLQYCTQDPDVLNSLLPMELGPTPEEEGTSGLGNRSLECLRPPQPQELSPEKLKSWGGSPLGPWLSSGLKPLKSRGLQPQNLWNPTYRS"}, "[29]": {"target": "FGR (human) (UniProt P09769)", "sequence (P09769 whole entry, looked up)": "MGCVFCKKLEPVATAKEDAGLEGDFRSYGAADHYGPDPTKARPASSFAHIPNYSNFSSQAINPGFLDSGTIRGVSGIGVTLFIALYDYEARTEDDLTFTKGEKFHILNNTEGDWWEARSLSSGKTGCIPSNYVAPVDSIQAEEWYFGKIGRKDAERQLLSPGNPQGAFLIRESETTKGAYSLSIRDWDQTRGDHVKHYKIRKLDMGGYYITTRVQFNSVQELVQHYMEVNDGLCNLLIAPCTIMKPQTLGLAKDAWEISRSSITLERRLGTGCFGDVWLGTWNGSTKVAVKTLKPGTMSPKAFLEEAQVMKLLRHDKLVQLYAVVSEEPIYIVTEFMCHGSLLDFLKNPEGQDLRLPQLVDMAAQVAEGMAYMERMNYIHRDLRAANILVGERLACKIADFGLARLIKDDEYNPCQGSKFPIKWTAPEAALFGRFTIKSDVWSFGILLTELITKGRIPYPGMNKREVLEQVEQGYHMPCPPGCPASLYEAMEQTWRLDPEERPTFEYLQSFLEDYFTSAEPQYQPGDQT"}, "[30]": {"target": "PTK2B (human) (UniProt Q14289)"}, "[31]": {"target": "DYRK2 (human) (UniProt Q92630)"}, "[32]": {"target": "PKN1 (human) (UniProt Q16512)"}, "[33]": {"target": "PRKCI (human) (UniProt P41743)"}, "[34]": {"target": "CSNK1G2 (human) (UniProt P78368)"}, "[35]": {"target": "DYRK1B (human) (UniProt Q9Y463)"}, "[36]": {"target": "STK3 (human) (UniProt Q13188)"}, "[37]": {"target": "MARK1 (human) (UniProt Q9P0L2)"}, "[38]": {"target": "PRKCZ (human) (UniProt Q05513)"}, "[39]": {"target": "AKT1 (human) (UniProt P31749)"}, "[40]": {"target": "ABL1 (human) (UniProt P00519)"}, "[41]": {"target": "CHUK (human) (UniProt O15111)"}},
  "data": [
    {"smiles": "Cc1ccc(S(=O)(=O)/C=C/C#N)cc1", "values": [
      {"measurement": "residual activity", "setting": "[1]", "value": 105, "unit": "%"},
      {"measurement": "residual activity", "setting": "[2]", "value": 130, "unit": "%"},
      {"measurement": "residual activity", "setting": "[3]", "value": 112, "unit": "%"},
      {"measurement": "residual activity", "setting": "[4]", "value": 96.1, "unit": "%"},
      {"measurement": "residual activity", "setting": "[5]", "value": 97.5, "unit": "%"},
      {"measurement": "residual activity", "setting": "[6]", "value": 103, "unit": "%"},
      {"measurement": "residual activity", "setting": "[7]", "value": 124, "unit": "%"},
      {"measurement": "residual activity", "setting": "[8]", "value": 94.3, "unit": "%"},
      {"measurement": "residual activity", "setting": "[9]", "value": 102, "unit": "%"},
      {"measurement": "residual activity", "setting": "[10]", "value": 107, "unit": "%"},
      {"measurement": "residual activity", "setting": "[11]", "value": 100, "unit": "%"},
      {"measurement": "residual activity", "setting": "[12]", "value": 101, "unit": "%"},
      {"measurement": "residual activity", "setting": "[13]", "value": 94.2, "unit": "%"},
      {"measurement": "residual activity", "setting": "[14]", "value": 90.7, "unit": "%"},
      {"measurement": "residual activity", "setting": "[15]", "value": 105, "unit": "%"},
      {"measurement": "residual activity", "setting": "[16]", "value": 112, "unit": "%"},
      {"measurement": "residual activity", "setting": "[17]", "value": 93.2, "unit": "%"},
      {"measurement": "residual activity", "setting": "[18]", "value": 104, "unit": "%"},
      {"measurement": "residual activity", "setting": "[19]", "value": 97.1, "unit": "%"},
      {"measurement": "residual activity", "setting": "[20]", "value": 99.5, "unit": "%"},
      {"measurement": "residual activity", "setting": "[21]", "value": 104, "unit": "%"},
      {"measurement": "residual activity", "setting": "[22]", "value": 102, "unit": "%"},
      {"measurement": "residual activity", "setting": "[23]", "value": 98.8, "unit": "%"},
      {"measurement": "residual activity", "setting": "[24]", "value": 98.2, "unit": "%"},
      {"measurement": "residual activity", "setting": "[25]", "value": 96.4, "unit": "%"},
      {"measurement": "residual activity", "setting": "[26]", "value": 97.2, "unit": "%"},
      {"measurement": "residual activity", "setting": "[27]", "value": 102, "unit": "%"},
      {"measurement": "residual activity", "setting": "[28]", "value": 114, "unit": "%"},
      {"measurement": "residual activity", "setting": "[29]", "value": 100, "unit": "%"},
      {"measurement": "residual activity", "setting": "[30]", "value": 92.8, "unit": "%"},
      {"measurement": "residual activity", "setting": "[31]", "value": 102, "unit": "%"},
      {"measurement": "residual activity", "setting": "[32]", "value": 92.1, "unit": "%"},
      {"measurement": "residual activity", "setting": "[33]", "value": 90.3, "unit": "%"},
      {"measurement": "residual activity", "setting": "[34]", "value": 98.6, "unit": "%"},
      {"measurement": "residual activity", "setting": "[35]", "value": 101, "unit": "%"},
      {"measurement": "residual activity", "setting": "[36]", "value": 93.6, "unit": "%"},
      {"measurement": "residual activity", "setting": "[37]", "value": 102, "unit": "%"},
      {"measurement": "residual activity", "setting": "[38]", "value": 101, "unit": "%"},
      {"measurement": "residual activity", "setting": "[39]", "value": 112, "unit": "%"},
      {"measurement": "residual activity", "setting": "[40]", "value": 98.7, "unit": "%"},
      {"measurement": "residual activity", "setting": "[41]", "value": 87.3, "unit": "%"}
    ]},
    {"smiles": "O=c1cc(N2CCOCC2)oc2c1ccc1ccccc12", "values": [
      {"measurement": "residual activity", "setting": "[1]", "value": 102, "unit": "%"},
      {"measurement": "residual activity", "setting": "[2]", "value": 118, "unit": "%"},
      {"measurement": "residual activity", "setting": "[3]", "value": 99.9, "unit": "%"},
      {"measurement": "residual activity", "setting": "[4]", "value": 100, "unit": "%"},
      {"measurement": "residual activity", "setting": "[5]", "value": 96.2, "unit": "%"},
      {"measurement": "residual activity", "setting": "[6]", "value": 112, "unit": "%"},
      {"measurement": "residual activity", "setting": "[7]", "value": 103, "unit": "%"},
      {"measurement": "residual activity", "setting": "[8]", "value": 70.9, "unit": "%"},
      {"measurement": "residual activity", "setting": "[9]", "value": 99.8, "unit": "%"},
      {"measurement": "residual activity", "setting": "[10]", "value": 97.4, "unit": "%"},
      {"measurement": "residual activity", "setting": "[11]", "value": 100, "unit": "%"},
      {"measurement": "residual activity", "setting": "[12]", "value": 102, "unit": "%"},
      {"measurement": "residual activity", "setting": "[13]", "value": 83.9, "unit": "%"},
      {"measurement": "residual activity", "setting": "[14]", "value": 93.2, "unit": "%"},
      {"measurement": "residual activity", "setting": "[15]", "value": 93, "unit": "%"},
      {"measurement": "residual activity", "setting": "[16]", "value": 93.8, "unit": "%"},
      {"measurement": "residual activity", "setting": "[17]", "value": 94.2, "unit": "%"},
      {"measurement": "residual activity", "setting": "[18]", "value": 105, "unit": "%"},
      {"measurement": "residual activity", "setting": "[19]", "value": 107, "unit": "%"},
      {"measurement": "residual activity", "setting": "[20]", "value": 94.9, "unit": "%"},
      {"measurement": "residual activity", "setting": "[21]", "value": 95.1, "unit": "%"},
      {"measurement": "residual activity", "setting": "[22]", "value": 109, "unit": "%"},
      {"measurement": "residual activity", "setting": "[23]", "value": 97.1, "unit": "%"},
      {"measurement": "residual activity", "setting": "[24]", "value": 104, "unit": "%"},
      {"measurement": "residual activity", "setting": "[25]", "value": 87.6, "unit": "%"},
      {"measurement": "residual activity", "setting": "[26]", "value": 101, "unit": "%"},
      {"measurement": "residual activity", "setting": "[27]", "value": 96.6, "unit": "%"},
      {"measurement": "residual activity", "setting": "[28]", "value": 101, "unit": "%"},
      {"measurement": "residual activity", "setting": "[29]", "value": 94.6, "unit": "%"},
      {"measurement": "residual activity", "setting": "[30]", "value": 94.3, "unit": "%"},
      {"measurement": "residual activity", "setting": "[31]", "value": 88.9, "unit": "%"},
      {"measurement": "residual activity", "setting": "[32]", "value": 106, "unit": "%"},
      {"measurement": "residual activity", "setting": "[33]", "value": 95.5, "unit": "%"},
      {"measurement": "residual activity", "setting": "[34]", "value": 102, "unit": "%"},
      {"measurement": "residual activity", "setting": "[35]", "value": 90.5, "unit": "%"},
      {"measurement": "residual activity", "setting": "[36]", "value": 99.1, "unit": "%"},
      {"measurement": "residual activity", "setting": "[37]", "value": 99.5, "unit": "%"},
      {"measurement": "residual activity", "setting": "[38]", "value": 106, "unit": "%"},
      {"measurement": "residual activity", "setting": "[39]", "value": 101, "unit": "%"},
      {"measurement": "residual activity", "setting": "[40]", "value": 104, "unit": "%"},
      {"measurement": "residual activity", "setting": "[41]", "value": 93.4, "unit": "%"}
    ]}
  ]
}
